Patent US5443827A, “Fibrin-targeted inhibitors of thrombin” (President and Fellows of Harvard College, priority 1993, dated 1995)

Tests used:
thrombin [1] = biological target: T1, thrombin (Homo sapiens, UniProt P00734); assay: β-Peptide assay (thrombin inhibition as a function of binding to immobilized β-peptide); format: biochemical; settings: fitted parameter ± SD
Protocol: 96-well microtiter plates were coated overnight at 4° C. with β-peptide. 100 μl coating buffer (20 mM Tris, 50 mMNaCl, 1 mM CaCl2, 1 mM MgC2, pH 7.4) containing 0.005 mg β-peptide were applied to each well. After coating, the microtiter plate was first washed 5 times with coating buffer supplemented with 0.05% Tween 20 and then three times with water. Free binding sites were blocked overnight at 4° C. by the addition of 250 μl bovine serum albumin (2% w/v in coating buffer) per well. […]
After washing 7 times with modified coating buffer (20 mM Tris, 0.5 M NaCl2, 1 mM CaCl2, 1 mM MgCl2, 0.2% Tween 20, pH 7.4) and three times with water, 100 μl of assay buffer (20 mMNaHPO4, 0.15M NaCl, 0.1% BSA, pH 7.4) were applied per well and 20 μl (1.25 U/ml) of thrombin solution were allowed to incubate for 1 h at room temperature. Then 50 μl of chromogenic substrate (S-2238 at 0.83 mg/ml) were applied and after 20 minutes, the reaction was stopped by addition of 50 μl of 20% acetic acid, and the resulting absorption read at 405 nm. Hirudin activity was detected as inhibition of thrombin activity and was expressed as % inhibition of total thrombin activity applied. […]

thrombin [2] = biological target: T1, thrombin; assay: Fibrin-Sepharose assay (thrombin inhibition as a function of binding to immobilized fibrin); format: biochemical; settings: 800 units applied
Protocol: This assay is as described by Bode et al., J. Biol. Chem. 262:10819-10823, 1987, herein incorporated by reference, with the following modifications. For the purposes of assaying targeted anti-thrombin activity, trace labeling of fibrin-monomer is not necessary. 200 μl fibrin-Sepharose were incubated for 2.5 h at room temperature with defined amounts (by the S-2238 assay) of hirudin or hirudin-59D8-conjugate (hirudin-59D8-IgG or, alternatively, hirudin-59D8-Fab') in 100 μl of buffer. After washing the fibrin-Sepharose three times with 3 ml 0.15M NaCl, 200 μl S-2238 assay buffer and 40 μl (0.05 U) thrombin solution (1.25 U/ml) were added and incubated for 1 h at room temperature. Subsequently 100 μl of chromogenic substrate S-2238 were added, and the reaction was stopped after 25 min by addition of 100 μl 20% acetic acid. After centrifugation (5 min, 1,000×g), absorption of the supernatant was read at 405 nm. Hirudin activity was again detected as inhibition of thrombin activity and was expressed as % of total thrombin activity applied. […]

[3] = system: fibrin formation on the surface of a plasma clot; assay: Inhibition of thrombus growth in a fibrinogen solution; format: biochemical, human; settings: for 3 h; FIG. 4A
Protocol: The method of Runge (Runge et al., Biochemistry 27:1153-1157, 1988, herein incorporated by reference) was followed, with the following modifications. Fresh-frozen plasma obtained from 5 donors was pooled, aliquoted and refrozen. Before each experiment, plasma was ultracentrifuged at 30,000 rpm for 60 min in a Beckmann SW 40 rotor in order to obtain platelet-free plasma (platelet count less than 1,000 platelets/μl). Immediately before each experiment, the anti-thrombin activities of hirudin and hirudin conjugate were calibrated using the S-2238 assay (i.e., the inhibition of thrombin peptidase activity by hirudin and its conjugates was determined, and appropriate dilutions were made so that the inhibition of thrombin peptidase activity was identical for each sample). […] The radioactivity level of each was then determined and only clots within 5% of the mean value were used for experiments.
(§1) After counting, clots were resuspended in 100 μl TBS (0.1M Tris, 0.1M NaCl, pH 7.4). […] At predetermined intervals, clots were removed from the test tube, washed three times with 2 ml 0.15M NaCl and assayed for radioactivity. Clots incubated without thrombin inhibitor (NaCl-controls) often could not be quantitatively removed from the incubation vial because of complete clotting of the assay mixture. […]

[4] = system: fibrin deposition on the surface of a clot suspended in human plasma; assay: Inhibition of thrombus growth in human plasma; format: biochemical
Protocol: The method of Runge (Runge et al., Biochemistry 27:1153-1157, 1988, herein incorporated by reference) was followed, with the following modifications. Fresh-frozen plasma obtained from 5 donors was pooled, aliquoted and refrozen. Before each experiment, plasma was ultracentrifuged at 30,000 rpm for 60 min in a Beckmann SW 40 rotor in order to obtain platelet-free plasma (platelet count less than 1,000 platelets/μl). Immediately before each experiment, the anti-thrombin activities of hirudin and hirudin conjugate were calibrated using the S-2238 assay (i.e., the inhibition of thrombin peptidase activity by hirudin and its conjugates was determined, and appropriate dilutions were made so that the inhibition of thrombin peptidase activity was identical for each sample). Platelet-free plasma clots were made by adding to plasma, in the following sequence: ^125 I-labelled human fibrinogen (20,000 cpm/ml plasma), 0.5M CaCl2 (final concentration 0.05M) and thrombin (0.5 NIH units/ml plasma). Immediately after the addition of thrombin, the solution was drawn into silastic tubing (i.d. 4 mm) and allowed to clot for 2 h at 37 ° C. The tubing was then cut into 1.8 cm sections yielding clots of approximately 0.2 ml. The clots were removed from the tubing, and each was placed in a plastic vial and washed three times with 2 ml 0.15M NaCl. The radioactivity level of each was then determined and only clots within 5% of the mean value were used for experiments.
as §1, with “7.4). Experiments were initiated by the addition of 100 μl hirudin or conjugate solution containing defined amounts of anti-thrombin activity.” for “7.4).”

thrombin [5] = biological target: T1, thrombin; settings: r-Hirudin as obtained from Knoll AG; cited from earlier work

Substance: hirudin
- B1, ultimate thrombin inhibition (thrombin [1]; FIG. 2A): 4.3±0.5%
- ultimate inhibition (B1) (thrombin [1]; FIG. 2B): 0%
- thrombin inhibition (thrombin [2]): 32.3%
- concentration giving complete inhibition of fibrin formation [3]: 80 ATU/ml
- fibrin deposition lower than NaCl control ([4]; at 10 ATU/ml, FIG. 6A): 17 µg
- fibrin deposition lower than NaCl control ([4]; at 100 ATU/ml, p=0.0001): 112 µg
- fibrin deposition compared with the mixture at 9 ATU/ml ([4]; hirudin at 44 ATU/ml, p=0,003, FIG. 7): lower
- specific activity (thrombin [5]): 17,000 anti-thrombin units (ATU)/mg
